Test results reported in paper PMC9925730, “Controlled sequential in situ self-assembly and disassembly of a fluorogenic cisplatin prodrug for cancer theranostics” (Nature Communications, 2023).
“And” between values parts separate entries of the source, which are not always exact repeats. Identical values can stand only once. Like-named read-outs stand apart in the source and are kept apart here.

Tests used:
Experiment in all cases: Cytotoxicity, MTT assay
Assay type in all cases: cell-based, human
Parameters in all cases: key to cell viability, mean: % viability = OD / OD of untreated control
[1] = test system: HEK-293T cells
Procedure: (§1) HeLa cells were seeded on flat-bottomed 96-well plates (5000 cells per well) and incubated at 37 °C overnight. Varying concentrations of P-CyPt, Pt^IVNPs or CDDP (0, 1, 2, 5, 10, 20, 30, 50, 100, and 200 μM) in DMEM medium (100 μL) were added. Cells were either incubated for 48 h, or firstly incubated with these three compounds for 2 h, washed with PBS and then incubated with refreshed blank DMEM medium for another 48 h. Then, 3-(4,5)-dimethylthiahiazo (-z-y1)−3,5-di-phenytetrazoliumromide (MTT, 50 μL, 1 mg /mL in PBS) was added into each well. The cells were kept at 37 °C for 4 h, and the solution in each well was carefully removed, followed by addition of dimethyl sulfoxide (DMSO, 150 μL). The absorbance (OD) at 490 nm in each well was acquired on the microplate reader (Tcan). The absorbance of non-treated blank cells (OD control) was used as the control. The percentage of cell viability was calculated by dividing OD to the OD control. […]
(§2) Supplementary Table 4. The IC50 (μM) value of different Pt drugs toward HeLa, HepG2 and HEK-293T cells.a
(§3) Compounds Condition IC50 (μM) HeLa HepG2 HEK-293T […]
(§4) a The IC50 values were measured by the MTT assay. Values denote mean ± s.d. (n = 3 independent experiments). b Cells were incubated with varying concentrations of CDDP, P-CyPt or PtIVNPs for […]
(§5) c Cells were incubated with varying concentrations of CDDP, P-CyPt or PtIVNPs for 2 h, and the mediums were removed, washed with PBS. Blank culture mediums were added, and the cells were kept incubation for another 48 h.

[2] = test system: HeLa cells
Procedure: as §1, §2, §3, §4, §5

[3] = test system: HepG2 cells; conditions: for IC50: HepG-2; for cell viability, mean: Supplementary Fig. 23 (b)
Procedure: as §1, §2, §3, §4, §5

SMILES: CC1(C)C(/C=C/C2=C3Oc4cc(OP(=O)(O)O)c(Cl)cc4C=C3CCC2)=[N+](CCCNC(=O)[C@@H](Cc2ccccc2)NC(=O)[C@@H](Cc2ccccc2)NC(=O)CCC(=O)[O][Pt]([NH2])([NH2])([OH])([Cl])[Cl])c2ccccc21 [P-CyPt]
- IC50 ([1]; HEK-293T, 2+48 h, individual samples, read-out: IC50-2+48h): > 200 µM
- IC50 ([1]; HEK-293T, 2+48 h, mean of 3 samples, read-out: IC50-2+48h): > 200 µM
- IC50 ([1]; HEK-293T, 48 h, individual samples, read-out: IC50-48h): 43.8 µM and 50.3 µM and 51.8 µM
- cell viability, mean ([1]; Supplementary Fig. 23 (c), concentration 1 μM): 98.4753
- cell viability, mean ([1]; Supplementary Fig. 23 (c), concentration 2 μM): 94.8818
- cell viability, mean ([1]; Supplementary Fig. 23 (c), concentration 5 μM): 91.0944
- cell viability, mean ([1]; Supplementary Fig. 23 (c), concentration 10 μM): 84.8089
- cell viability, mean ([1]; Supplementary Fig. 23 (c), concentration 20 μM): 73.4808
- cell viability, mean ([1]; Supplementary Fig. 23 (c), concentration 30 μM): 62.5624
- cell viability, mean ([1]; Supplementary Fig. 23 (c), concentration 50 μM): 47.5251
- cell viability, mean ([1]; Supplementary Fig. 23 (c), concentration 100 μM): 31.456
- cell viability, mean ([1]; Supplementary Fig. 23 (c), concentration 200 μM): 17.421
- cell viability, mean ([1]; Supplementary Fig. 24 (c), concentration 1 μM): 97.0705
- cell viability, mean ([1]; Supplementary Fig. 24 (c), concentration 2 μM): 99.2124
- cell viability, mean ([1]; Supplementary Fig. 24 (c), concentration 5 μM): 98.6059
- cell viability, mean ([1]; Supplementary Fig. 24 (c), concentration 10 μM): 96.2404
- cell viability, mean ([1]; Supplementary Fig. 24 (c), concentration 20 μM): 97.2347
- cell viability, mean ([1]; Supplementary Fig. 24 (c), concentration 30 μM): 96.0142
- cell viability, mean ([1]; Supplementary Fig. 24 (c), concentration 50 μM): 92.8073
- cell viability, mean ([1]; Supplementary Fig. 24 (c), concentration 100 μM): 92.5552
- cell viability, mean ([1]; Supplementary Fig. 24 (c), concentration 200 μM): 88.5457
- IC50 ([1]; Supplementary Fig. 24 (c), read-out: IC50): > 200 µM
- IC50 ([1]; incubated 2 h, then blank medium 48 h, MTT, read-out: IC50 HEK-293T): > 200 µM
- IC50 ([1]; incubated 48 h, MTT, read-out: IC50 HEK-293T): 48.6 ± 4.24 µM
- IC50 ([2]; HeLa, 2+48 h, individual samples, read-out: IC50-2+48h): 14.2 µM and 15.9 µM and 13.5 µM
- IC50 ([2]; HeLa, 2+48 h, mean of 3 samples, read-out: IC50-2+48h): 14.6 µM
- IC50 ([2]; HeLa, 48 h, individual samples, read-out: IC50-48h): 5.97 µM and 7.11 µM and 7.21 µM
- cell viability, mean ([2]; Supplementary Fig. 23 (a), concentration 1 μM): 92.8903
- cell viability, mean ([2]; Supplementary Fig. 23 (a), concentration 2 μM): 79.6162
- cell viability, mean ([2]; Supplementary Fig. 23 (a), concentration 5 μM): 58.6671
- cell viability, mean ([2]; Supplementary Fig. 23 (a), concentration 10 μM): 35.0547
- cell viability, mean ([2]; Supplementary Fig. 23 (a), concentration 20 μM): 22.3775
- cell viability, mean ([2]; Supplementary Fig. 23 (a), concentration 30 μM): 18.41
- cell viability, mean ([2]; Supplementary Fig. 23 (a), concentration 50 μM): 13.1166
- cell viability, mean ([2]; Supplementary Fig. 23 (a), concentration 100 μM): 9.42
- cell viability, mean ([2]; Supplementary Fig. 23 (a), concentration 200 μM): 5.73
- IC50 ([2]; Supplementary Fig. 23 (a), read-out: IC50): 6.76 µM
- cell viability, mean ([2]; Supplementary Fig. 24 (a), concentration 1 μM): 94.9375
- cell viability, mean ([2]; Supplementary Fig. 24 (a), concentration 2 μM): 87.7526
- cell viability, mean ([2]; Supplementary Fig. 24 (a), concentration 5 μM): 73.6215
- cell viability, mean ([2]; Supplementary Fig. 24 (a), concentration 10 μM): 60.3727
- cell viability, mean ([2]; Supplementary Fig. 24 (a), concentration 20 μM): 43.1523
- cell viability, mean ([2]; Supplementary Fig. 24 (a), concentration 30 μM): 31.9252
- cell viability, mean ([2]; Supplementary Fig. 24 (a), concentration 50 μM): 21.7758
- cell viability, mean ([2]; Supplementary Fig. 24 (a), concentration 100 μM): 11.35
- cell viability, mean ([2]; Supplementary Fig. 24 (a), concentration 200 μM): 7.117
- IC50 ([2]; incubated 2 h, then blank medium 48 h, MTT, read-out: IC50 HeLa): 14.6 ± 1.24 µM
- IC50 ([2]; incubated 48 h, MTT, read-out: IC50 HeLa): 6.76 ± 0.68 µM
- IC50 ([3]; 2+48 h, individual samples, read-out: IC50-2+48h): 20.2 µM and 17.1 µM (2×)
- IC50 ([3]; 2+48 h, mean of 3 samples, read-out: IC50-2+48h): 18.1 µM
- IC50 ([3]; 48 h, individual samples, read-out: IC50-48h): 9.3 µM and 10.5 µM and 11 µM
- cell viability, mean ([3]; concentration 1 μM): 92.0846
- cell viability, mean ([3]; concentration 2 μM): 82.2394
- cell viability, mean ([3]; concentration 5 μM): 69.0701
- cell viability, mean ([3]; concentration 10 μM): 51.1783
- cell viability, mean ([3]; concentration 20 μM): 33.5308
- cell viability, mean ([3]; concentration 30 μM): 23.4253
